# Experimental data published in paper PMC9189845, “Structure–Activity Relationships of 8-Hydroxyquinoline-Derived Mannich Bases with Tertiary Amines Targeting Multidrug-Resistant Cancer” (Journal of Medicinal Chemistry, 2022).
# Counter-ions that a name gives are not always drawn. Like-named read-outs stand apart in the source and are kept apart here.
# Experiments:
# [1] = test system: A431 cells; experiment: PrestoBlue viability assay, A431 cells
# [2] = test system: MES-SA cells; experiment: PrestoBlue viability assay, MES-SA cells; details: for pIC50 value MES-SA: MES-SA cells, without TQ
# [3] = test system: A431-B1 cells; experiment: PrestoBlue viability assay, A431-B1 (A431-ABCB1) cells
# [4] = test system: MES-SA/Dx5 cells; experiment: PrestoBlue viability assay, MES-SA/Dx5 cells (MDR, P-gp positive); details: for SR_TQ: selectivity ratio MES-SA vs MES-SA/Dx5, with TQ; for SR: selectivity ratio MES-SA vs MES-SA/Dx5, without TQ; for SR (MES-SA_TQ / Dx5_TQ) (values in parentheses): presence of 1 μM TQ; for pIC50 value MES-SA/Dx5: MES-SA/Dx5 cells, without TQ
# [5] = Homo sapiens, A-431, 72 h, read-out: IC50 / µM A431, 72 h incubation
# [6] = Homo sapiens, A-431, read-out: pIC50 A431, SARM figure (converted)
# [7] = Homo sapiens, MES-SA, 72 h, read-out: IC50 / μM MES-SA, absence of TQ, 72 h incubation
# [8] = Homo sapiens, MES-SA, read-out: IC50 / μM MES-SA (values in parentheses), presence of 1 μM P-gp inhibitor tariquidar (TQ)
# [9] = Homo sapiens, MES-SA, read-out: pIC50 value MES-SA+TQ, MES-SA cells, with TQ (converted)
# [10] = Homo sapiens, MES-SA, read-out: pIC50 value MES-SA, MES-SA cells, without TQ (converted)
# [11] = 72 h, read-out: IC50 / µM A431-B1, 72 h incubation
# [12] = read-out: pIC50 A431-B1, SARM figure (converted)
# [13] = Homo sapiens, MES-SA/Dx5, 72 h, read-out: IC50 / μM MES-SA/Dx5, absence of TQ, 72 h incubation
# [14] = Homo sapiens, MES-SA/Dx5, read-out: IC50 / μM MES-SA/Dx5 (values in parentheses), presence of 1 μM P-gp inhibitor tariquidar (TQ)
# [15] = Homo sapiens, MES-SA/Dx5, read-out: pIC50 value MES-SA/Dx5 + TQ, MES-SA/Dx5 cells, with TQ (converted)
# [16] = Homo sapiens, MES-SA/Dx5, read-out: pIC50 value MES-SA/Dx5, MES-SA/Dx5 cells, without TQ (converted)
# [17] = read-out: IC50 / µM A431, 72 h incubation
# [18] = fraction of IC50 in P-gp negative vs positive cells
# [19] = read-out: IC50 / μM MES-SA, absence of TQ, 72 h incubation
# [20] = read-out: IC50 / μM MES-SA/Dx5, absence of TQ, 72 h incubation
Structure (SMILES),"IC50 [1, 5] [µM]","IC50 [1, 6] [µM]","IC50 [2, 7] [µM]","IC50 [2, 8] [µM]","IC50 [2, 9] [µM]","IC50 [2, 10] [µM]","IC50 [3, 11] [µM]","IC50 [3, 12] [µM]","IC50 [4, 13] [µM]","IC50 [4, 14] [µM]","IC50 [4, 16] [µM]",SR_TQ [4],SR [4],further results
CCOC(=O)C1CCN(Cc2cc(Cl)c3cccnc3c2O)CC1 [Compound 49],8.57 ± 2.94,8.13,1.78 ± 0.12,1.7,1.7,1.78,1.99 ± 0.25,2,0.18 ± 0.03,0.98,0.178,1.73,9.91,"IC50 [4, 15]: 0.977 µM"
CCN(CC)Cc1ccc2cccnc2c1O [Compound 1],14.8 ± 0.41,13.5,7.35 ± 1.28,5.15,5.13,7.24,4.51 ± 0.73,5.01,1.64 ± 0.24,3.04,1.62,1.69,4.49,"IC50 [1, 17]: 13.4 ± 0.18 µM; IC50 ([3]; read-out: IC50 / µM A431-B1, 72 h incubation): 4.99 ± 0.52 µM; IC50 [4, 15]: 3.02 µM"
CCOCc1cc(CN2CCCCC2)c(O)c2ncccc12 [Compound 22],25.2 ± 8.88,23.4,8.77 ± 1.07,9.13 ± 0.32,9.12,8.71,4.17 ± 1.49,3.89,0.79 ± 0.14,7.08 ± 0.23,0.776,1.29,11.12,"IC50 [4, 15]: 7.08 µM"
Oc1c(CN2CCN(c3ccc(F)cc3)CC2)cc(Cl)c2cccnc12 [Compound 44],4.04 ± 0.39,3.98,1.61 ± 0.3,1.75 ± 0.16,1.74,1.58,3.25 ± 0.94,3.09,0.25 ± 0.01,0.65 ± 0.05,0.245,2.7,6.56,"IC50 [4, 15]: 0.646 µM; SR (MES-SA_TQ / Dx5_TQ) (values in parentheses) [4, 18]: 2.70"
CCCOCc1cc(CN2CCN(C)CC2)c(O)c2ncccc12 [Compound 37],19.9 ± 9.14,18.2,13.5 ± 0.86,12.3 ± 0.28,12.3,13.5,6.19 ± 1.73,5.89,3.24 ± 0.19,7.41 ± 0.01,3.24,1.66,4.17,"IC50 [4, 15]: 7.41 µM"
CC(C)OCc1cc(CN2CCN(c3ccccc3)CC2)c(O)c2ncccc12 [Compound 42],7.35 ± 2.49,6.92,1.06 ± 0.19,1.01 ± 0.16,1,1.05,1.84 ± 0.48,1.78,0.25 ± 0.05,0.66 ± 0.13,0.245,1.54,4.24,"IC50 [4, 15]: 0.646 µM"
CCCCOCc1cc(CN2CCN(C)CC2)c(O)c2ncccc12 [Compound 10],11.2 ± 0.37,11.2,7.23 ± 0.14,5,5.01,7.24,4.57 ± 0.2,4.57,2.12 ± 0.15,3.92,2.14,1.28,3.4,"IC50 [1, 17]: 11.2 ± 0.83 µM; IC50 [4, 15]: 3.8 µM"
CN1CCN(C(c2ccccn2)c2cc(Cl)c3cccnc3c2O)CC1 (centres unmarked) [Compound 114],,49,16 ± 1.31,,,15.8,,17.4,13.9 ± 0.46,,13.8,,1.15,
COCc1cc(CN2CCN(C)CC2)c(O)c2ncccc12 [Compound 35],77.2 ± 11.6,75.9,24.8 ± 3.36,30.2 ± 0.64,30.2,24.5,26.49 ± 0.12,26.3,8.82 ± 1.41,27.54 ± 0.13,8.71,1.1,2.81,"SR (MES-SA_TQ / Dx5_TQ) (values in parentheses) [4, 18]: 1.10"
Cc1ccccc1N1CCN(Cc2ccc(O)c3ncccc23)CC1 [Compound 58],23.3,23.4,5.84 ± 1.02,5.78 ± 0.49,5.75,5.75,31.2,30.9,3.01 ± 0.58,3.02 ± 0.01,2.95,1.91,1.94,"IC50 ([2]; Homo sapiens, MES-SA, read-out: pIC50 MES-SA, absence of TQ (converted), SARM figure): 5.75 µM; IC50 ([2]; Homo sapiens, MES-SA, read-out: pIC50 MES-SA_TQ, presence of 1 μM TQ (converted), SARM figure): 5.75 µM"
COCc1cc(CN2CCOCC2)c(O)c2ncccc12 [Compound 31],34.4 ± 8.42,33.1,9.89 ± 1.52,8.97 ± 1.01,8.91,9.77,12.1 ± 1.47,12,5.64 ± 0.45,7.77 ± 0.31,5.62,1.15,1.75,"IC50 [4, 15]: 7.76 µM"
Oc1c(C(c2cccnc2)N2CCCC2)ccc2cccnc12 (centres unmarked) [Compound 85],,,41,,,40.7,,52.5,23.3,,23.4,,1.76,
Oc1ccc(CN2CCc3ccccc3C2)c2cccnc12 [Compound 50],,,16.7 ± 1.5,,,16.6,,,17 ± 0.49,,17,,0.99,
COc1ccc(O)c(CN2CCCCC2)c1 [Compound 60],,,> 100,,,,,,> 100,,,,,
Oc1ccccc1CN1CCOCC1 [Compound 65],,,> 100,,,,,,> 100,,,,,
CC(=O)c1ccc(O)c(CN2CCCCC2)c1 [Compound 62],,,> 100,,,,,,> 100,,,,,
CCOC(=O)C1CCCN(Cc2cc(Cl)c3cccnc3c2O)C1 (centres unmarked) [Compound 78],,,2.52 ± 0.22,2.14,,,,,0.43 ± 0.01,1.18,,,,"SR (MES-SA / MES-SA/Dx5) ([4]; fraction of IC50 in P-gp negative vs positive cells, absence of TQ): 5.91; SR (MES-SA_TQ / Dx5_TQ) (values in parentheses) [4, 18]: 1.81"
CN1CCN(C(c2cccnc2)c2ccc3cccnc3c2O)CC1 (centres unmarked) [Compound 111],,,54.8 ± 3.66,,,55,,,35.9 ± 4.93,,35.5,,1.53,
CCN1CCN(Cc2cc(OC)ccc2O)CC1 [Compound 74],,,> 100,,,,,,> 100,,,,,
COc1ccc(O)c(CN2CCN(C)CC2)c1 [Compound 73],,,> 100,,,,,,> 100,,,,,
Oc1c(C(c2cccs2)N2CCCCC2)ccc2cccnc12 (centres unmarked) [Compound 94],,,8.88 ± 0.93,,,8.91,,,11.6 ± 0.94,,11.5,,0.76,
O=C1CCCN1Cc1cc(Cl)c2cccnc2c1O [Compound 76],,,10.2 ± 0.25,,,10.2,,,12.2 ± 0.55,,12,,0.84,
"Oc1cc2c(cc1O)CN(Cc1ccc3cccnc3c1O)CC2 [Compound 82, 2-((8-Hydroxy-quinolin-7-yl)methyl)-1,2,3,4-tetrahydroisoquinoline-6,7-diol Hydrochloride]",,,3.42 ± 0.28,,,3.39,,,3.61 ± 0.51,,3.55,,0.95,
COc1ccc(C(C)=O)cc1CN1CCCCC1 [Compound 63],,,> 100,,,,,,> 100,,,,,
CC1CCN(C(c2ccccc2)c2ccc3cccnc3c2O)CC1 (racemic) [Compound 99],,,,,,,,,,,,,0.76,"pIC50 value MES-SA [2]: 5.06; IC50 [2, 19]: 8.77 ± 0.24 µM; pIC50 value MES-SA/Dx5 [4]: 4.95; IC50 [4, 20]: 11.5 ± 1.75 µM"
CC1CCN(C(c2ccncc2)c2ccc3cccnc3c2O)CC1 (centres unmarked) [Compound 100],,,,,,,,,,,,4.37,2.74,"pIC50 value MES-SA [2]: 4.78; IC50 [2, 19]: 17.1 ± 3.89 µM; pIC50 value MES-SA/Dx5 [4]: 5.21; IC50 [4, 20]: 6.24 ± 1.17 µM"
Oc1ccc(CN2CCCCCC2)c2cccnc12 [Compound 52],,,7.15 ± 0.27,,,7.08,,,5.84 ± 0.69,,5.75,,1.23,
CCN(CC)Cc1ccc(O)c2ncccc12 [Compound 45],,,4.5 ± 0.04,,,4.47,,,5.02 ± 0.26,,5.01,,0.9,
Oc1ccccc1C(=S)N1CCOCC1 [Compound 66],,,> 100,,,,,,> 100,,,,,
